In patent publication US20240287022A1 (Merck Sharp & Dohme LLC, priority 2021, published 2024):

Target: recombinant IL4I1 (Homo sapiens (Human), UniProt Q96RQ9)
Assay: IL4I1 Enzymatic Assay (Amplex Red/HRP coupled H2O2 detection)
Assay type: biochemical
Details: 1 nM IL4I1, 1 mM each Phe/Tyr/Trp, four-hour pre-incubation, 120 minutes reaction, top compound concentration of 10000 nM
How it was run: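 Recombinant IL4I1 (1 nM final) was pre-incubated 4 h at ambient temperature with compound in 50 mM Hepes pH 7.0, 0.005% Tween20. Reaction ran 120 min with 1 mM each Phe/Tyr/Trp, 0.05 mM Amplex Red and 1 U/mL HRP. Resorufin fluorescence (544/590 nm) was read, and EC50 fitted from ten-point 1:3 titrations (top 10000 nM) by four-parameter regression.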

Sequence of recombinant IL4I1 (Q96RQ9 22-567): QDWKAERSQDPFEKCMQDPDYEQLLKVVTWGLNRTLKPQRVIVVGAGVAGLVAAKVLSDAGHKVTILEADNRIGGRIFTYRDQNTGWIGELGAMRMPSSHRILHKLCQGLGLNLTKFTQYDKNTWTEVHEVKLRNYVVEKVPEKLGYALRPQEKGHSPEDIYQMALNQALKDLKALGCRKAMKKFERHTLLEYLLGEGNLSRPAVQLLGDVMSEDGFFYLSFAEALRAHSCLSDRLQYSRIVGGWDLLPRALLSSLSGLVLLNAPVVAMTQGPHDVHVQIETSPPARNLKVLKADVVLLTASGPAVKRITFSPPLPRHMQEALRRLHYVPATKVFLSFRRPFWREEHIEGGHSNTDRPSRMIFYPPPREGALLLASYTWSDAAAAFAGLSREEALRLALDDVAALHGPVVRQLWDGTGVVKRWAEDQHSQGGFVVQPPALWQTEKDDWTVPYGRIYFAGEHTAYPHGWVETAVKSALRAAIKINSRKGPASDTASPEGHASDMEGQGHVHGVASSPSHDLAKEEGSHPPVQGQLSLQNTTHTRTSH

EC50 [nM] | Compound
4.4 | C[C@H]1Oc2ccc(Cc3cc4ccccc4[nH]c3=O)cc2NC1=O (single isomer, unassigned) [Example 142A, 2-methyl-6-((2-oxo-1,2-dihydroquinolin-3-yl)methyl)-2H-benzo[b][1,4]oxazin-3(4H)-one]
9.7 | O=c1[nH]c2ccccc2cc1Cc1ccc(C2CNC2)cc1 [Example 63, 3-(4-(azetidin-3-yl)benzyl)quinolin-2(1H)-one]
6.3 | CC(C)(O)c1ccc(Cc2cc3ccccc3[nH]c2=O)cc1 [Example 160, 3-(4-(2-Hydroxypropan-2-yl)benzyl)quinolin-2(1H)-one]
12.3 | CC(=O)NCc1ncc(Cc2cc3ccccc3[nH]c2=O)cc1Cl [Example 68, N-((3-chloro-5-((2-oxo-1,2-dihydroquinolin-3-yl)methyl)pyridin-2-yl)methyl)acetamide]
16 | COC(=O)Nc1ccc(Cc2cc3ccccc3[nH]c2=O)cc1 [Example 119, methyl (4-((2-oxo-1,2-dihydroquinolin-3-yl)methyl)phenyl)carbamate]
3.8 | CC(=O)N1Cc2ccc(Cc3cc4ccccc4[nH]c3=O)cc2C1 [Example 83, 3-((2-acetylisoindolin-5-yl)methyl)quinolin-2(1H)-one]
0.9 | O=C1CCc2ccc(Cc3cc4ccccc4[nH]c3=O)cc21 [Example 75, 3-((3-oxo-2,3-dihydro-1H-inden-5-yl)methyl)quinolin-2(1H)-one]
532 | COc1ccc2[nH]c(=O)c(Cc3ccccc3)cc2c1 [Example 172, 3-benzyl-6-methoxyquinolin-2(1H)-one]
0.9 | O=c1[nH]c2ccc(Cc3cc4ccccc4[nH]c3=O)cc2o1 [Example 121, 6-((2-oxo-1,2-dihydroquinolin-3-yl)methyl)benzo[d]oxazol-2(3H)-one]
10.7 | CC1(C)CN(c2ccc(Cc3cc4ccccc4[nH]c3=O)cn2)C(=O)O1 [Example 52, 5,5-dimethyl-3-(5-((2-oxo-1,2-dihydroquinolin-3-yl)methyl)pyridin-2-yl)oxazolidin-2-one]
30.4 | CC(=O)NCc1cccc(Cc2cc3ccccc3[nH]c2=O)c1 [Example 128, N-(3-((2-oxo-1,2-dihydroquinolin-3-yl)methyl)benzyl)acetamide]
81.4 | C[C@@H]1Oc2ccc(Cc3cc4ccccc4[nH]c3=O)cc2NC1=O (stereo in doubt) [Example 142B, 2-methyl-6-((2-oxo-1,2-dihydroquinolin-3-yl)methyl)-2H-benzo[b][1,4]oxazin-3(4H)-one]
9.6 | C[C@@](O)(c1ccc(Cc2cc3ccccc3[nH]c2=O)cc1)C(F)F (stereo in doubt) [Example 90A, 3-(4-(1,1-difluoro-2-hydroxypropan-2-yl)benzyl)quinolin-2(1H)-one]
6.9 | COc1cc(CNS(C)(=O)=O)ccc1Cc1cc2ccccc2[nH]c1=O [Example 74, N-(3-methoxy-4-((2-oxo-1,2-dihydroquinolin-3-yl)methyl)benzyl)methanesulfonamide]
5.9 | O=c1[nH]c2ccccc2cc1Cc1ccc(N2CCCS2(=O)=O)nc1 [Example 46, 3-((6-(1,1-dioxidoisothiazolidin-2-yl)pyridin-3-yl)methyl)quinolin-2(1H)-one]
60.5 | CCn1cc(Cc2cc3ccccc3[nH]c2=O)cn1 [Example 112, 3-((1-ethyl-1H-pyrazol-4-yl)methyl)quinolin-2(1H)-one]
2.4 | O=c1[nH]c2ccccc2cc1Cc1ccc2c(c1)S(=O)(=O)CC2 [Example 81, 3-((1,1-dioxido-2,3-dihydrobenzo[b]thiophen-6-yl)methyl)quinolin-2(1H)-one]
2 | CC(=O)NCc1ccc(Cc2cc3ccccc3[nH]c2=O)cc1Cl [Example 66, N-(2-chloro-4-((2-oxo-1,2-dihydroquinolin-3-yl)methyl)benzyl)acetamide]
1.4 | O=c1[nH]c2ccncc2cc1Cc1ccc2ccccc2c1 [Example 115, 3-(naphthalen-2-ylmethyl)-1,6-naphthyridin-2(1H)-one]
10.8 | CCS(=O)(=O)Nc1ccc(Cc2cc3ccccc3[nH]c2=O)cn1 [Example 47, N-(5-((2-oxo-1,2-dihydroquinolin-3-yl)methyl)pyridin-2-yl)ethanesulfonamide]
0.5 | O=c1[nH]c2ccccc2cc1Cc1coc2ccccc12 [Example 136, 3-(benzofuran-3-ylmethyl)quinolin-2(1H)-one]

Continued, molecule first:

Compound | EC50 [nM]
CC(C)(C#N)c1ccc(Cc2cc3cnccc3[nH]c2=O)cc1 [Example 100, 2-methyl-2-(4-((2-oxo-1,2-dihydro-1,6-naphthyridin-3-yl)methyl)phenyl)propanenitrile] | 7.3
CC(=O)NCc1ccc(Cc2cc3ccccc3n(C)c2=O)cc1 [Example 151, N-(4-((1-Methyl-2-oxo-1,2-dihydroquinolin-3-yl)methyl)benzyl)acetamide] | 3.3
CS(=O)(=O)NCc1ncc(Cc2cc3ccccc3[nH]c2=O)cc1Cl [Example 91, N-((3-chloro-5-((2-oxo-1,2-dihydroquinolin-3-yl)methyl)pyridin-2-yl)methyl)methanesulfonamide] | 10.9
Cc1c(Cc2cc3ccccc3[nH]c2=O)cnn1C [Example 109, 3-((1,5-dimethyl-1H-pyrazol-4-yl)methyl)quinolin-2(1H)-one] | 39.9
Cc1nn(C)cc1-c1nnc(Cc2cc3ccccc3[nH]c2=O)o1 [Example 36, 3-((5-(1,3-dimethyl-1H-pyrazol-4-yl)-1,3,4-oxadiazol-2-yl)methyl)quinolin-2(1H)-one] | 30.7
Cc1noc(C)c1Cc1nnc(Cc2cc3ccccc3[nH]c2=O)o1 [Example 24, 3-((5-((3,5-dimethylisoxazol-4-yl)methyl)-1,3,4-oxadiazol-2-yl)methyl)quinolin-2(1H)-one] | 194
CC1CN(c2ccc(Cc3cc4cnccc4[nH]c3=O)cc2)C(=O)O1 (single isomer, unassigned) [Example 188, (R or S)-5-methyl-3-(4-((2-oxo-1,2-dihydro-1,6-naphthyridin-3-yl)methyl)phenyl)oxazolidin-2-one] | 12.3
O=c1[nH]c2ccccc2cc1Cc1nnc(Cc2ccccc2F)o1 [Example 8, 3-((5-(2-fluorobenzyl)-1,3,4-oxadiazol-2-yl)methyl)quinolin-2(1H)-one] | 12.8
O=C1N(c2ccc(Cc3cc4cnccc4[nH]c3=O)cc2)CCC1(F)F [compound 62, 3-(4-(3,3-difluoro-2-oxopyrrolidin-1-yl)benzyl)-1,6-naphthyridin-2(1H)-one] | 6
CC(C)(C#N)n1cc(Cc2cc3ccccc3[nH]c2=O)cn1 [Example 148, 2-methyl-2-(4-((2-oxo-1,2-dihydroquinolin-3-yl)methyl)-1H-pyrazol-1-yl)propanenitrile] | 258
Cn1c(=O)c(CC2CC2c2ccccc2)cc2ccccc21 (stereo not drawn) [Example 175, 1-Methyl-3-((2-phenylcyclopropyl)methyl)quinolin-2(1H)-one] | 7.7
O=C1CCc2cc(Cc3cc4cc(F)ccc4[nH]c3=O)ccc2N1 [Example 123, 6-fluoro-3-((2-oxo-1,2,3,4-tetrahydroquinolin-6-yl)methyl)quinolin-2(1H)-one] | 3.7
O=c1[nH]c2ccccc2cc1Cc1nnc(-c2cc(Cl)ccc2Cl)o1 [Example 11, 3-((5-(2,5-dichlorophenyl)-1,3,4-oxadiazol-2-yl)methyl)quinolin-2(1H)-one] | 2.2
CNCc1cccc2cc(Cc3cccc(OC(F)(F)F)c3)c(=O)[nH]c12 [Example 180, 8-((methylamino)methyl)-3-(3-(trifluoromethoxy)benzyl)quinolin-2(1H)-one] | 105
O=c1[nH]c2ccccc2cc1Cc1nnc(-c2cnsc2)o1 [Example 30, 3-((5-(isothiazol-4-yl)-1,3,4-oxadiazol-2-yl)methyl)quinolin-2(1H)-one] | 696
O=c1[nH]c2ccccc2cc1Cc1nnc(-c2cn[nH]c2)o1 [Example 6, 3-((5-(1H-pyrazol-4-yl)-1,3,4-oxadiazol-2-yl)methyl)quinolin-2(1H)-one] | 2.8
Cc1nc(C)c(Cc2cc3ccccc3[nH]c2=O)s1 [Example 134, 3-((2,4-dimethylthiazol-5-yl)methyl)quinolin-2(1H)-one] | 5.1
Cn1c(=O)c(Cc2cccc(OC(F)(F)F)c2)cc2ccccc21 [Example 144, 1-methyl-3-(3-(trifluoromethoxy)benzyl)quinolin-2(1H)-one] | 7.2
N#Cc1cn[nH]c1-c1nnc(Cc2cc3ccccc3[nH]c2=O)o1 [Example 41, 5-(5-((2-oxo-1,2-dihydroquinolin-3-yl)methyl)-1,3,4-oxadiazol-2-yl)-1H-pyrazole-4-carbonitrile] | 13.4
CC1(O)CC(c2ccc(Cc3cc4cnccc4[nH]c3=O)cc2)C1 (stereo not drawn) [compound 162, 3-(4-(3-hydroxy-3-methylcyclobutyl)benzyl)-1,6-naphthyridin-2(1H)-one] | 6.8
O=c1[nH]c2ccccc2cc1Cc1cnc(N2CCCCC2)s1 [Example 137, 3-((2-(piperidin-1-yl)thiazol-5-yl)methyl)quinolin-2(1H)-one] | 4.5
Cn1cc2c(Cc3cc4cc(F)ccc4[nH]c3=O)cccc2n1 [Example 163, 6-fluoro-3-((2-methyl-2H-indazol-4-yl)methyl)quinolin-2(1H)-one] | 5.4
O=C1COc2c(Cc3cc4cccc5c4n(c3=O)CCC5)cccc2N1 [Example 149, 8-((5-oxo-2,3-dihydro-1H,5H-pyrido[3,2,1-ij]quinolin-6-yl)methyl)-2H-benzo[b][1,4]oxazin-3(4H)-one] | 150
O=c1[nH]c2ccccc2cc1Cc1ccc(OC2CCOCC2)nc1 [Example 85, 3-((6-((tetrahydro-2H-pyran-4-yl)oxy)pyridin-3-yl)methyl)quinolin-2(1H)-one] | 8.7
